Assay results as given in patent US20080286201A1, “Caspase-3 Substrate Comprising Imaging Agents” (priority 2005, published 2008).
Square brackets hold non-standard residues; d marks the D form. Peptide text beside a SMILES is read from it. Tyr(3-I) = N[C@@H](Cc1ccc(O)c(I)c1)C(=O)O; Orn = NCCC[C@H](N)C(=O)O

Key:
caspase-3 = biological target: T1, caspase-3 (Homo sapiens, UniProt P42574); experiment: Caspase-3 assay kit (BIOMOL QuantiZyme Assay System), potency (Ki) of caspase-3 test substrates; type: biochemical
T1 construct: purchased BIOMOL
T1 sequence (P42574 29-175 limits assumed): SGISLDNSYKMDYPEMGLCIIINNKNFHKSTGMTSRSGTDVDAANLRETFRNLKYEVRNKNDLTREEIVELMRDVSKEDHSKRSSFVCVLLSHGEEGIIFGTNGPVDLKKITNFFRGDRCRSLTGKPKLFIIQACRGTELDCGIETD
T1 sequence (P42574 176-277 limits assumed): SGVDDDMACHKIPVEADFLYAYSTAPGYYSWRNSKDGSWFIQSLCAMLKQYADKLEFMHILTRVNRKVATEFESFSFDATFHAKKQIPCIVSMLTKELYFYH
Description: Potency (Ki) of the caspase-3 test substrates was evaluated using a commercially available caspase-3 assay kit (BIOMOL QuantiZyme™ Assay System, CASPASE-3 Assay Kit for Drug Discovery). The DEVD substrate sequence was bio-modified with the additional of both tyrosine residues for radiolabelling and leader sequence to aid cell penetration. In vitro potency was maintained following both of these bio-modifications.

[1] = tested on: phosphatidylserine (PS) on the outer membrane of apoptotic cells; conditions: read-out: affinity of binding to phosphatidylserine; cited from earlier work

Row | Molecule | Ki (caspase-3) | Kd [1]
1 | CC(=O)N[C@@H](CCCNC(=N)N)C(=O)N[C@@H](CCCCN)C(=O)N[C@@H](CCCCN)C(=O)N[C@@H](CCCNC(=N)N)C(=O)N[C@@H](CCCNC(=N)N)C(=O)N[C@@H](CCCN)C(=O)N[C@@H](CCCNC(=N)N)C(=O)N[C@@H](CCCNC(=N)N)C(=O)N[C@@H](CCCNC(=N)N)C(=O)NCC(=O)N[C@@H](CC(=O)O)C(=O)N[C@@H](CCC(=O)O)C(=O)N[C@H](C(=O)N[C@@H](CC(=O)O)C(=O)NCC(=O)N[C@@H](CCCCN)C(=O)N[C@@H](CCCCN)C(=O)N[C@@H](Cc1ccc(O)c(I)c1)C(N)=O)C(C)C [Compound 22] (Ac-RKKRR[Orn]RRRGDEVDGKK[Tyr(3-I)]-NH2) | 9.24 µM | 
2 | CC(=O)N[C@@H](CC(=O)O)C(=O)N[C@@H](CCC(=O)O)C(=O)N[C@H](C(=O)N[C@@H](CC(=O)O)C(=O)Nc1ccc2c(C)cc(=O)oc2c1)C(C)C [Ac-Asp-Glu-Val-Asp-AMC, reference compound] | 7.74 µM | 
3 | CC(=O)N[C@@H](CC(=O)O)C(=O)N[C@@H](CCC(=O)O)C(=O)N[C@H](C(=O)N[C@@H](CC(=O)O)C(=O)NCC(=O)N[C@@H](Cc1ccc(O)c(I)c1)C(N)=O)C(C)C [Compound 2] (Ac-DEVDG[Tyr(3-I)]-NH2) | 7.83 µM | 
4 | Annexin-5: endogenous human protein (RMM 36 kDa) which binds to phosphatidylserine on apoptotic cells |  | ~0.001 µM
